Measured values published in patent US20100196264A1, “USE OF SOMATOSTATIN ANALOGS IN MYOCARDIAL PERFUSION IMAGING” (THE BRIGHAM AND WOMEN'S HOSPITAL, INC., priority 2007, published 2010).

Tests used:
SST3 = SST3 (Homo sapiens, UniProt P32745); details: cited from earlier work
[1] = system: gastric mucosal blood flow; details: fifteen minutes after a single bolus injection; laser Doppler flowmeter; adapted from Surg Endosc (2003) 17: 1570-1572; cited from earlier work
SST2 = SST2 (Homo sapiens, UniProt P30874); details: cited from earlier work
SST2, sequence (P30874 whole entry): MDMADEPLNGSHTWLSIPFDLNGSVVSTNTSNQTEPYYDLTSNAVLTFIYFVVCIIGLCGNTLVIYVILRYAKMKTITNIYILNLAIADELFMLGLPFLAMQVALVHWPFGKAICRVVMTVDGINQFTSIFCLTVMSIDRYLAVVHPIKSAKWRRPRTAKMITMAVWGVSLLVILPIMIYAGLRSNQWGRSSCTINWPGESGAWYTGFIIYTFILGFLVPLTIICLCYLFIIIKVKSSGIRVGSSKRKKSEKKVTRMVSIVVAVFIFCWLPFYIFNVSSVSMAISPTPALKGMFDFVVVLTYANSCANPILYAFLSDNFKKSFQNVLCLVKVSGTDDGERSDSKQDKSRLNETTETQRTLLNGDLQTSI

SST4 = SST4 (Homo sapiens, UniProt P31391); details: cited from earlier work
SST4, sequence (P31391 whole entry, the tested form may be a part): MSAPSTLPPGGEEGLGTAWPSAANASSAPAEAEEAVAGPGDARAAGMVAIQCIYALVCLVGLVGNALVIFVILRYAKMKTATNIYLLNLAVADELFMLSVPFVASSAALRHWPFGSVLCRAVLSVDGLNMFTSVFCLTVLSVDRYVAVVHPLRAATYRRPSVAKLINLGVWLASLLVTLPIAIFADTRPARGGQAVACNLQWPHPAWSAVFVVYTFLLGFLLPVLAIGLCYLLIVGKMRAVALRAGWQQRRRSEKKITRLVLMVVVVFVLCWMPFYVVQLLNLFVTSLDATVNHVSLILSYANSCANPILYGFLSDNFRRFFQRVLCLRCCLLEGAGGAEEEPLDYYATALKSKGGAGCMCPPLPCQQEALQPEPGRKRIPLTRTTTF

[2] = system: extracardiac uptake of radiotracer; experiment: Myocardial perfusion imaging with periprocedural somatostatin analog (examples); assay type: in vivo
SST1 = SST1 (Homo sapiens, UniProt P30872); details: cited from earlier work
SST1, sequence (P30872 whole entry, the tested form may be a part): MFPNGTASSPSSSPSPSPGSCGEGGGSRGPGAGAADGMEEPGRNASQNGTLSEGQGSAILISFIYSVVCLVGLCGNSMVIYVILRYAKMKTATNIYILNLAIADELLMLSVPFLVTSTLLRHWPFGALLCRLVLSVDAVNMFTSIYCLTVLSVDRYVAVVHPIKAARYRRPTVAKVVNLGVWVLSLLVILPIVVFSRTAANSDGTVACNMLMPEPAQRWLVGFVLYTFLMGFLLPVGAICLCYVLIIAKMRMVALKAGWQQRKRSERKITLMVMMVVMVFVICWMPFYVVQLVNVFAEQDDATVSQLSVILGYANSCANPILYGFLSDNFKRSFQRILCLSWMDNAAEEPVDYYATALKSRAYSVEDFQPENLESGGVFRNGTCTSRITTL

portal vein flow = details: infusion at various infusion concentrations; adapted from Digestion 1999; 60:132-140; cited from earlier work
[3] = typical administration at rest; Cardiolite Product Insert; cited from earlier work
[4] = system: abdominal radiotracer uptake; details: literature, cited from earlier work; for obscuring effect of abdominal radiotracer uptake: myocardial perfusion imaging

SST3, sequence (P32745 whole entry): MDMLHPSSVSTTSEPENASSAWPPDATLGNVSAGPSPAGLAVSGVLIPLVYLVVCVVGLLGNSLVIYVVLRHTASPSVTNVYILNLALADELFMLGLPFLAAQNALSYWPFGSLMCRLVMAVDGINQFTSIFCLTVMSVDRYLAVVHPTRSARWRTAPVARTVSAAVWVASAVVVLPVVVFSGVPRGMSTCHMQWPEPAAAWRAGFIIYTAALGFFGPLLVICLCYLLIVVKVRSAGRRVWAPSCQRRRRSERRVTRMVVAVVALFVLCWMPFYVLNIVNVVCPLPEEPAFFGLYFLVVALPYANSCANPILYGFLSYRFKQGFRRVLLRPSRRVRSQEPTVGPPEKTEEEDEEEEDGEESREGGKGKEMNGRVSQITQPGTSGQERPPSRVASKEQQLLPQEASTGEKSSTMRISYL

Molecule	affinity for SST3 (in words) (SST3)	affinity for SST2 (in words) (SST2)	affinity for SST4 (in words) (SST4)	affinity for SST1 (in words) (SST1)	obscuring effect of abdominal radiotracer uptake [4]	also measured
C[C@@H](O)[C@@H]1NC(=O)[C@H](CCCCN)NC(=O)[C@@H](Cc2c[nH]c3ccccc23)NC(=O)[C@H](Cc2ccccc2)NC(=O)[C@@H](NC(=O)[C@H](N)Cc2ccccc2)CSSC[C@@H](C(=O)N[C@H](CO)[C@@H](C)O)NC1=O [Octreotide, octreotide]	displaying affinity	displaying affinity	virtually no affinity	virtually no affinity	–	reduction in gastric mucosal blood flow [1]: 50%; extracardiac uptake of radiotracer ([2]; 100 mcg bolus fifteen minutes prior to radiotracer, then 100 mcg per hour constant infusion, adenosine stress): reduced; extracardiac uptake of radiotracer ([2]; 100 mcg bolus ten minutes prior to radiotracer, second 100 mcg bolus ten minutes prior to adenosine stress): reduced; portal vein flow (portal vein flow): decrease
[C-]#[N+]CC(C)(C)OC.[C-]#[N+]CC(C)(C)OC.[C-]#[N+]CC(C)(C)OC.[C-]#[N+]CC(C)(C)OC.[C-]#[N+]CC(C)(C)OC.[C-]#[N+]CC(C)(C)OC.[Tc] [Tc-99m-setsamibi]	–	–	–	–	–	total dose absorbed into the liver [3]: 19%; total dose taken into the heart [3]: 1.2%
Cn1c(=O)c2[nH]cnc2n(C)c1=O [aminophyllin]	–	–	–	–	–	artifacts in images taken after the dipyridamole injection ([4]; used to counter dipyridamole stress): does not prevent artifacts
CC(C)[C@@H]1NC(=O)[C@H](CCCCN)NC(=O)[C@@H](Cc2c[nH]c3ccccc23)NC(=O)[C@H](Cc2ccc(O)cc2)NC(=O)[C@@H](NC(=O)[C@H](N)Cc2ccc3ccccc3c2)CSSC[C@@H](C(=O)N[C@H](C(N)=O)[C@@H](C)O)NC1=O [lanreotide]	displaying affinity	displaying affinity	virtually no affinity	virtually no affinity	–	extracardiac uptake of radiotracer ([2]; 200 mcg bolus thirty minutes prior to radiotracer, then 200 mcg per hour infusion for rest injections, treadmill exercise stress): reduced
CCN(CC)CCNC(=O)c1cc(Cl)c(N)cc1OC [metoclopromide]	–	–	–	–	did not significantly decrease	–
cholecystokinin (peptide, UniProt P06307 21-115, looked up, Cholecystokinin, gastric stimulant) Cholecystokinin: QPVPPADPAGSGLQRAEEAPRRQLRVSQRTDGESRAHLGALLARYIQQARKAPSGRMSIVKNLQNLDPSHRISDRDYMGWMDFGRRSAEEYEYPS	–	–	–	–	without success	–
